In patent US12152047B2, “Anti-cancer gold compounds” (Royal Melbourne Institute of Technology, priority 2019, dated 2024):
Like-named read-outs stand apart in the source and are kept apart here.

Columns and labels:
[1] = MTT assay (in vitro cytotoxicity), HeK-293; type: cell-based; conditions: human, HEK-293 (normal) embryonic kidney cells, 48 h incubation, mean ± SD of three experiments
Description: (§1) For all the assays, unless otherwise mentioned, stock solutions of the metal compounds were freshly prepared in DMSO (10 mM) and 1% DMSO in complete medium was used as a control.
(§2) The MTT [3-(4,5-dimethylthiazol-2-yl)-2,5-diphenyltetrazolium bromide] assay is based on the conversion of a yellow coloured MTT solution to purple formazan crystals by the active mitochondrial dehydrogenases of viable cells. Thus, the intensity of the produced purple colour is proportional to the number of viable cells. The cells were seeded in 96 well plates depending on cellular doubling time and were treated with solutions of the metal compounds (100 μM, 10 μm, 1 μM, 0.1 μM, 0.01 μM) after overnight incubation. The cells were further incubated for 48 h and the medium containing the test compounds was removed before addition of 100 μL MTT solution (5 mg/mL) in serum-free medium. After 4 h incubation in the dark at 37° C., the excess MTT solution was removed from the wells and 100 μL of DMSO was added to each well to solubilise the formed formazan crystals. The absorbance of formazan solution from each well was recorded using a Spectramax micro titre plate reader at 570 and 630 nm. […] For all the assays, stock solutions of gold compounds were prepared in DMSO (10 mM) and the final treatment concentrations (100 μM-0.01 μM) were made in complete growth medium.

[2] = system: PC3 (prostate) cancer cells; test: MTT assay (in vitro cytotoxicity), PC3; type: cell-based; conditions: ratio to cisplatin
Description: as §1, §2

[3] = system: HT-1080 (bone, fibrosarcoma) cancer cells; test: MTT assay (in vitro cytotoxicity), HT-1080; type: cell-based; conditions: ratio to cisplatin
Description: as §1, §2

HeLa xenografts = test: In vivo anti-tumour activity in mice xenograft model; set-up: species or system BALB/c Nude mice; conditions: 1 mg/kg intraperitoneal, 42 days, nude mice bearing HeLa xenografts
Description: The use of metal complexes or gold compounds in animal xenograft models has been previously described elsewhere for cervical cancer models or other tumour types. The efficacy of the newly synthesised novel gold compound in reducing tumour growth in cervical cancer models was tested as follows. […] Five-week-old female BALB/c Nude mice were used. HeLa tumour cells (5×10^6) resuspended in RPMI medium injected subcutaneously tumour cells in 100 μL of culture media using a 29-gauge insulin syringe into both ventral flanks, anterior to the hind leg. The mice were monitored twice daily for 48 hrs to determine if any unexpected adverse effects are observed. Tumours were allowed to establish to approximately 50 mm^3 (as determined using electronic callipers) and the mice were then randomly separated into three groups of 5.
From this stock solution, the final working concentrations for mice injections were prepared in PBS (Phosphate buffered saline, pH 7.4) with DMSO concentration not exceeding 3.6%.
Tumour volumes were measured 8 times during the 42-day period. All mice were culled after 42 days and the tumours were collected and weighed. All the animal experiments were performed in Biological Research Facility, Melbourne University according to the animal ethics number 1814422.

[4] = system: HeLa (cervical) cancer cells; test: MTT assay (in vitro cytotoxicity), HeLa; type: cell-based; conditions: ratio to cisplatin
Description: as §1, §2

[5] = system: A2780 ovarian cancer cells; test: Trypan blue assay, A2780; type: cell-based
Description: (§3) A Trypan blue assay was conducted to determine the cytotoxicity of certain compounds of the invention towards cisplatin-sensitive (A2780) and -resistant (A2780Cis) ovarian, prostate (PC3) and colon (HT-29) cancer cells.
(§4) In order to determine the toxicity of the compounds, 5×10^4 cells per well were seeded into 24 well plates and allowed to grow for 24 hours. The cells were then treated with increasing concentrations of the compounds for 72 hours. […] The gold complexes were dissolved in DMSO immediately prior to the experiments (5 mM stock solutions). 0.25% DMSO in complete medium served as vehicle control. All treatments were performed using molar concentrations and each well received 1 mL of treatment in cell culture media (RPMI) containing 10% FBS and 1% penicillin and streptomycin. After 72 hours of treatment, the media was collected from each well in separate tubes in order to include dead cells in the cell count. Cells from the plate were removed using 200 μL of 0.25% Trypsin-EDTA for 3 minutes at 37° C. Trypsin was neutralised with the media originally removed from the cells and centrifuged at 1200 rpm for 5 minutes. The supernatant was discarded and the cells were resuspended in 100 μL of fresh complete media. From this, 20 μL of cell suspension was removed, mixed with an equal volume of Trypan Blue and the cells were counted using a haemocytometer.

HT-29 colon cancer cells = test: Trypan blue assay, HT-29; type: cell-based
Description: as §3, §4

[6] = system: A2780Cis cisplatin resistant ovarian cancer cells; test: Trypan blue assay, A2780Cis; type: cell-based
Description: as §3, §4

[7] = system: PC3 prostate cancer cells; test: Trypan blue assay, PC3; type: cell-based
[8] = system: cisplatin-resistant ovarian cancer cells (A2780Cis); test: Dose dependent study, trypan blue assay, A2780Cis; type: cell-based; conditions: at 0.39 μM, 72 hours treatment

Question: Which IC50 at 48 h [1] does the source give for S=P(c1ccccc1)(c1ccccc1)c1cccc[c]1[Au][PH]12CN3CN(CN(C3)C1)C2 [Compound 1, [Au(PTA){κC-2-C6H4P(S)Ph2}]] here?
Answer: 380 ± 110 nM

Question: And the “higher cytotoxicity than cisplatin against prostate cancer cells” value [2]?
Answer: 3.5 fold

Question: And the “higher cytotoxicity than cisplatin against bone cancer cells” value [3]?
Answer: 7.8 fold

Question: And the “mouse death or body weight loss after treatment” value (HeLa xenografts)?
Answer: no mouse death or body weight loss

Question: And the “higher cytotoxicity than cisplatin towards cervical cancer cells” value [4]?
Answer: approximately 27 fold

Question: For CC(=O)OC[C@H]1O[C@@H]([S-])[C@H](OC(C)=O)[C@@H](OC(C)=O)[C@@H]1OC(C)=O.CCP(CC)CC.[Au+] [auranofin], which IC50 [5] is on record?
Answer: 80 ± 10 nM

Question: And the IC50 (HT-29 colon cancer cells)?
Answer: 510 nM

Question: What about the IC50 [6] of the same molecule?
Answer: 710 ± 60 nM

Question: What about the IC50 [7] of the same molecule?
Answer: 440 ± 50 nM

Question: With S=P(c1ccccc1)(c1ccccc1)c1cccc[c]1[Au][P+](c1ccccc1)(c1ccccc1)c1ccccc1 [Compound 2, [Au(PPh3){κC-2-C6H4P(S)Ph2}]] as the molecule, how does the IC50 at 48 h [1] read?
Answer: 5810 ± 350 nM

Question: With COc1cc([C@@H]2c3cc4c(cc3[C@@H](O[C@@H]3O[C@@H]5CO[C@@H](C)O[C@H]5[C@H](O)[C@H]3O)[C@H]3COC(=O)[C@H]23)OCO4)cc(OC)c1O [etoposide] as the molecule, how does the “effect on cell viability” value [8] read?
Answer: no significant effect

Question: Which IC50 ([5]; Trypan blue, 72 hours treatment, read-out: In vitro cytotoxicity IC50, A2780) does the source give for N.N.[Cl][Pt][Cl] [Cisplatin] here?
Answer: 1400 ± 130 nM

Question: What about the IC50 (HT-29 colon cancer cells; Trypan blue, 72 hours treatment, read-out: In vitro cytotoxicity IC50, HT-29) of the same molecule?
Answer: > 25000 nM

Question: What about the tumour volume inhibition (HeLa xenografts; compared to solvent control) of the same molecule?
Answer: 29%

Question: And the “effect on cell viability” value [8]?
Answer: no significant effect

Question: And the IC50 ([6]; Trypan blue, 72 hours treatment, read-out: In vitro cytotoxicity IC50, A2780Cis)?
Answer: > 25000 nM
